Source: article PMC12841663, “Antiprotozoal Potential of Cultivated Geranium macrorrhizum Against Giardia duodenalis, Trichomonas gallinae and Leishmania infantum” (International Journal of Molecular Sciences, 2026)
Converted amounts (≈) assume the structure as drawn. “Also recorded” adds a separate entry of the source.

Columns and labels:
[1] = test system: G. duodenalis trophozoites; test: Morphological evaluation by light microscopy (Diff-Quik), G. duodenalis; assay type: cell-based, Giardia duodenalis; settings: germacrone 100 µg/mL, metronidazole 100 µg/mL; 0.5 and 48 h; control DMSO 1%
Experimental: Each well contained 435 μL of culture medium and 15 μL of the test or control compounds at the above-mentioned concentrations. The chamber included: two wells for growth control (0.5 h, 48 h), two for germacrone (0.5 h, 48 h), and two for metronidazole (0.5 h, 48 h). Incubation was performed at 37 °C. At each time point, the medium was removed, wells were dried, fixed, and stained with Diff-Quik. Morphological changes were analyzed using light microscopy. Experiments were performed as independent biological replicates on different plates, and one Diff-Quik stained smear was obtained per condition and time point per biological replicate. For morphometric analysis, a total of 30 trophozoites per condition and time point were measured across the independent biological replicates and were selected by consecutive sampling during a predefined serpentine (zig-zag) scan across the preparation. Up to two eligible trophozoites per field (intact, well-focused and non-overlapping) were measured in sequential fields until n = 30 was reached, avoiding subjective selection of “representative” cells. Overlapping, partially visible, out-of-focus, edge-of-field, or debris-obscured trophozoites were excluded a priori. Trophozoites were photographed using a researcher's mobile phone mounted to the microscope ocular. Calibration was performed at the same magnification using a stage micrometre and applied in ImageJ v. 1.54d. One Diff-Quik stained smear was obtained per condition/time point per biological replicate Cell length, cell width, cell surface, nuclear length, nuclear width, axoneme (only Giardia), and length of axostyle (only T. gallinae) were measured with ImageJ software, and the data were recorded in an Excel database for statistical analysis. The Shapiro-Wilk test was used to assess the normality of the morphological variables. When data followed a normal distribution, Student's t-test was applied; otherwise, non-parametric tests, such as the Mann-Whitney U test, was used. Values of p < 0.05 were considered significant. For the morphological analysis, the mean, standard deviation, median, and interquartile range were calculated using SPSS version 20 (IBM Corp., Armonk, NY, USA).

[2] = test system: T. gallinae trophozoites; test: Morphological evaluation by light microscopy (Diff-Quik), T. gallinae; assay type: cell-based, Trichomonas gallinae; settings: germacrone 100 µg/mL, metronidazole 10 µg/mL; 0.5 and 48 h; control DMSO 1%
Source text: At each time point, quadruplicates were assigned per condition: growth control, germacrone, and the corresponding positive control (metronidazole or amphotericin B). For microscopy, quadruplicate wells corresponding to the same condition/time point were pooled prior to centrifugation to obtain sufficient biomass and a representative pellet for smear preparation. Pooled samples per condition/time point were centrifuged, resuspended in FBS and spread onto microscope slides. Once dried, samples were fixed and stained with Diff-Quik (Medion Diagnostic AG, […], Switzerland) following the manufacturer's instructions. Additionally, three wells per condition (triplicates) were used for the MTT assay, with absorbance measured by spectrophotometry after 48 h. Morphological changes were analyzed using light microscopy. Experiments were performed as independent biological replicates on different plates, and one Diff-Quik stained smear was obtained per condition and time point per biological replicate. For morphometric analysis, a total of 30 trophozoites per condition and time point were measured across the independent biological replicates and were selected by consecutive sampling during a predefined serpentine (zig-zag) scan across the preparation. Up to two eligible trophozoites per field (intact, well-focused and non-overlapping) were measured in sequential fields until n = 30 was reached, avoiding subjective selection of “representative” cells. Overlapping, partially visible, out-of-focus, edge-of-field, or debris-obscured trophozoites were excluded a priori. Trophozoites were photographed using a researcher's mobile phone mounted to the microscope ocular. Calibration was performed at the same magnification using a stage micrometre and applied in ImageJ v. 1.54d. One Diff-Quik stained smear was obtained per condition/time point per biological replicate Cell length, cell width, cell surface, nuclear length, nuclear width, axoneme (only Giardia), and length of axostyle (only T. gallinae) were measured with ImageJ software, and the data were recorded in an Excel database for statistical analysis. The Shapiro-Wilk test was used to assess the normality of the morphological variables. When data followed a normal distribution, Student's t-test was applied; otherwise, non-parametric tests, such as the Mann-Whitney U test, was used. Values of p < 0.05 were considered significant. For the morphological analysis, the mean, standard deviation, median, and interquartile range were calculated using SPSS version 20 (IBM Corp., Armonk, NY, USA).

[3] = Cytotoxicity of pure compounds on Vero cells (MTT); assay type: cell-based; settings: African green monkey
Experimental: African green monkey kidney cells (Vero cells) were maintained in Dulbecco’s modified Eagle’s minimal essential medium (DMEM) (Thermo Fisher Scientific, Waltham, MA, USA) supplemented with 10% FBS and 1% Pen-Strep at 37 °C under a humidified atmosphere of 5% CO2/95% air.
Cells seeded in 96-well flat-bottom microplates with 100 μL medium per well (initial densities 10^4 cells per well) were exposed for 48 h to serial dilutions (100, 75, 50, 25, 10 and 1 µg/mL) of the tested compounds in DMSO (<1% final concentration). Cell viability was analyzed by the MTT colorimetric assay method, and the purple-colored formazan precipitate was dissolved with 100 μL of DMSO [23].
Data was analyzed using STATGRAPHICS Centurion XIX (https://www.statgraphics.com) (Statgraphics Technologies, Inc., The Plains, VA, USA). The mammalian cells and trophozoites viability were tested with each compound in a dose–response experiment to calculate their relative potency (CC50 or IC50 value, respectively). IC50 (μg/mL) expresses the dose of EOs, extracts or pure compounds needed to produce 50% mortality of trophozoites, while CC50 (μg/mL) expresses the dose of compounds necessary to produce 50% mortality of Vero cells.

[4] = test system: G. duodenalis trophozoites; test: Anti-Giardia activity assay (MTT viability); assay type: cell-based; settings: pure compounds
Experimental: Anti-Giardia (AG) activity assays were conducted on G. duodenalis trophozoites from the ATCC® 30957 strain (assemblage A), using flat-bottom microwell plates in quadruplicate. […] Incubation was carried out for 24 h at 37 °C. EOs and pure compounds were solved in DMSO (Sigma, Madrid, Spain) (<1% final concentration). […] Trophozoites/promastigotes viability was assessed using the modified MTT colorimetric assay, as described previously in the literature, with results further validated by microscopic examination. The plate was analyzed in a spectrophotometer at a wavelength of 570 nm. The percentage of antiparasitic activity was calculated as growth inhibition, using the following formula: % AT = 100 - [(Ap - Ab) ÷ (Ac - Ab)] × 100, where Ap is the absorbance of the tested product, Ab the absorbance of the blank and Ac the absorbance of the control wells (culture without treatment). […] Metronidazole (Acros Organics, Madrid, Spain) served as a reference compound for anti-Giardia activity and Anti-Trichomonas activity and amphotericin B for anti-Leishmania activity. Data was analyzed using STATGRAPHICS Centurion XIX ([…].com) (Statgraphics Technologies, Inc., The Plains, VA, USA). The mammalian cells and trophozoites viability were tested with each compound in a dose-response experiment to calculate their relative potency (CC50 or IC50 value, respectively).

[5] = test system: T. gallinae trophozoites; design: method as in PMID 36157195; settings: cited from earlier work

In the case of Cc1ncc([N+](=O)[O-])n1CCO [Met, metronidazole, reference compound], the “axoneme length vs control” value [1] is reported as “decreased at 0.5 h; also recorded: continued to decrease”, the “cell length vs control” value [1] is reported as “significant reductions at 30 min” and the “cell surface area vs control” value [1] is reported as “reduction in cell surface area relative to the control within 0.5 h”. For the same molecule, the “cell width vs control” value [1] was “decrease in cell width at 0.5 h”, the “nuclear length (left and right) vs control” value [1] was “No effects” and the “nuclear width vs control” value [1] was “reduction at 0.5 h, followed by an increase at 48 h”. For the same molecule, the “axostyle length vs control” value [2] was “decreased at 0.5 h; also recorded: undetectable in most metronidazole-treated trophozoites by 48 h”, the “cell length vs control” value [2] was “initial increase at 0.5 h, followed by a reduction at 48 h” and the “cell surface area vs control” value [2] was “significant reduction only at 48 h”. The “nuclear length vs control” value [2] was “decreased with metronidazole”, the “nuclear width vs control” value [2] was “diminished at 0.5 h; also recorded: further decreased” and the CC50 at 48 h [3] was over 100 µg/mL. For the same molecule, the IC50 [4] was 4.4 µg/mL (≈ 25.7 µM) and the “T. gallinae IC50” value [5] was 1.0 (0.8–1.1) [23] µg/mL.
